In patent US20230277630A1, “METHODS AND COMPOSITIONS FOR TREATING AMYOTROPHIC LATERAL SCLEROSIS” (Amylyx Pharmaceuticals, Inc., priority 2022, published 2023):

Tests used:
hrCYP3A4 = hrCYP3A4 (Homo sapiens, UniProt P08684); experiment: Formation of CYP probe metabolites in hrCYPs; type: in vitro ADME; settings: Formation rate(hrCYP)/Formation rate(Negative Control)
[1] = CYP reaction phenotyping: CYP control (negative control without CYP enzymes); settings: pH 7.4
Procedure: The reaction was initiated by the addition of NADPH, followed by incubation at 37° C.

OCT2 [2] = molecular target: T1, OCT2 (Homo sapiens, UniProt O15244); experiment: in vitro; settings: probe MPP+ (5 μM)
T1 sequence (O15244 1-555): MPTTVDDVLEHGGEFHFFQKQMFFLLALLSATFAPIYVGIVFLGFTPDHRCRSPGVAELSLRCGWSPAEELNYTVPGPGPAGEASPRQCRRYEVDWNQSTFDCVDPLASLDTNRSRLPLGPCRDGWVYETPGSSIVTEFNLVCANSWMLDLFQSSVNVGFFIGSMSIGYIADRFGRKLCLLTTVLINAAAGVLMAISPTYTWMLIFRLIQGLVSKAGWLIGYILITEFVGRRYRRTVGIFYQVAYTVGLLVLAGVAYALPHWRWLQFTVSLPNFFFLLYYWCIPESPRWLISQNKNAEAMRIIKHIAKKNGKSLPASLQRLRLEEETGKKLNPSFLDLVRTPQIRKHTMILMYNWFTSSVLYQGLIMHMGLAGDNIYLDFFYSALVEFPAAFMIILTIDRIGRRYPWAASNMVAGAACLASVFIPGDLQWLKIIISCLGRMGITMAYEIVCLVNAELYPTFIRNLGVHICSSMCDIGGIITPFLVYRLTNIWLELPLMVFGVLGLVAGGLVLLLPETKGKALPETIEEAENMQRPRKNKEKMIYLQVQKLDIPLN

OCT2 [3] = molecular target: T1, OCT2; experiment: OCT2 inhibitor (IC50) assessment, MPP+ uptake in transfected HEK cells; settings: 5 μM MPP+ + 300 μM Imipramine
CYP2C9 [4] = molecular target: T2, CYP2C9 (Homo sapiens, UniProt P11712); experiment: Inhibition of CYP2C9 activity in human liver microsomes
Procedure: CYP enzyme activity was determined by measuring the formation of each CYP probe metabolite by LC-MS/MS.
The total organic solvent content in the final incubation was less than 1% (DMSO ≤0.1%, other organic solvent ≤1%). […] The reaction was initiated by the addition of NADPH, followed by incubation at 37° C. for 10-30 minutes depending on the individual CYP isoform. The reaction was terminated by the addition of two volumes of ice-cold acetonitrile (ACN) containing an internal standard (IS, stable isotope-labeled CYP probe metabolite). Negative (vehicle) controls were conducted without TA. Positive controls were performed in parallel using known CYP inhibitors. […] The formation of individual CYP probe metabolites was determined by LC-MS/MS.
The enzyme activity was expressed as the peak area ratio of probe metabolite to IS, measured by LC-MS/MS.

CYP2C9 [5] = molecular target: T2, CYP2C9; settings: 4 μM, pH 7.4
Procedure: The remaining of TA (expressed as the peak area ratio of test article to IS) was determined by LC-MS/MS. CYP enzyme activities of the HLM were verified in parallel by determining the formation of individual CYP probe metabolites by LC-MS/MS using standard curves.

hrCYP2C9 = hrCYP2C9 (Homo sapiens, UniProt P11712)
OAT3 [6] = molecular target: T3, OAT3 (Homo sapiens, UniProt Q8TCC7); experiment: in vitro; settings: probe furosemide (5 μM)
T3 sequence (Q8TCC7 1-542): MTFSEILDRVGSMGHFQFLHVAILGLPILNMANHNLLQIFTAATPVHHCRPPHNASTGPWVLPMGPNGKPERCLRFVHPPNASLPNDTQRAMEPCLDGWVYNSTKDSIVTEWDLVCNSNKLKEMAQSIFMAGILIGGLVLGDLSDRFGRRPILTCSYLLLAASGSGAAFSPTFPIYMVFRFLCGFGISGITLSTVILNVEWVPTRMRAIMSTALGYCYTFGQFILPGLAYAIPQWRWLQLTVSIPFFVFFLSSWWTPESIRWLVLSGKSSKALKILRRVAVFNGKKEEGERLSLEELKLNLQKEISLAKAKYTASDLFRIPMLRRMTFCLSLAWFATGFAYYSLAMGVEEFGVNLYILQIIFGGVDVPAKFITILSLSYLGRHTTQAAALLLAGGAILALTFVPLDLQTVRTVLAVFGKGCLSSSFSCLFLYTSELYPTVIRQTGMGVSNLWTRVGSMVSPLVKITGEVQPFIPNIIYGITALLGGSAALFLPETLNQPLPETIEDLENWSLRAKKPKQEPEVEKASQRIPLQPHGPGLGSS

OAT3 [7] = molecular target: T3, OAT3; experiment: OAT3 inhibitor (IC50) assessment, furosemide uptake in transfected HEK cells; settings: 5 μM Furosemide + 100 μM Probenecid
CYP2B6 [8] = molecular target: T4, CYP2B6 (Homo sapiens, UniProt P20813); experiment: Time-dependent inhibition (TDI) of CYP in HLM, 30 min pre-incubation ±NADPH; settings: microsomes, pH 7.4, % of Control Enzyme Activity
T4 sequence (P20813 1-491): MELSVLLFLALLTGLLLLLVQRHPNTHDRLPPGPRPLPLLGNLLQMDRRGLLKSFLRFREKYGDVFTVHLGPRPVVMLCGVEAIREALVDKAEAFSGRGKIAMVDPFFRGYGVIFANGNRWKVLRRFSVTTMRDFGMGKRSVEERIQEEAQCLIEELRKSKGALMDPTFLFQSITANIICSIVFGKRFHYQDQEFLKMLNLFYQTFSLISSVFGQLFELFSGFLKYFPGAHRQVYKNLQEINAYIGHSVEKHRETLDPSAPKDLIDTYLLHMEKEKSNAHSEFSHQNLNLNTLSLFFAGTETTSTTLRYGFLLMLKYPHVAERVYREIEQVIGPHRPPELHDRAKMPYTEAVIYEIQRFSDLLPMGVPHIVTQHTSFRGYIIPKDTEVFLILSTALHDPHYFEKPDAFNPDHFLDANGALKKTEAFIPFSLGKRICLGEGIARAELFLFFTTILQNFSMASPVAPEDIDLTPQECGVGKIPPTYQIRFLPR
Procedure: CYP TDI was evaluated by a 30-minute pre-incubation of the TA with HLM in the presence and absence of NADPH followed by the CYP enzyme activity assay. […] The total organic solvent content in the final incubation was less than 1% (DMSO ≤0.1%, other organic solvent ≤1%). The CYP reactions were initiated by adding an individual CYP probe substrate with (when NADPH was not added in the pre-incubation step) or without (when NADPH was added in the pre-incubation step) the addition of NADPH (1 mM). The reaction mixture was incubated at 37° C. for 10-30 minutes depending on the individual CYP isoform (Table 24). The reaction was terminated with ice-cold acetonitrile (ACN) containing an internal standard (IS, stable isotope-labeled CYP probe metabolite). Negative (vehicle) controls were conducted using the incubation mixture without the TA. Positive controls were performed in parallel using known CYP time-dependent inhibitors. […] The formation of individual CYP probe metabolites was determined by LC-MS/MS.
The enzyme activity was expressed as the peak area ratio of CYP probe metabolite to IS, measured by LC-MS/MS.

CYP2B6 [9] = molecular target: T4, CYP2B6; experiment: Inhibition of CYP2B6 activity in human liver microsomes; type: in vitro ADME; parameters: co-incubated with pooled HLM (0.25 mg protein/mL); from tissue; host or cells: pooled human liver microsomes
CYP2D6 = CYP2D6 (Homo sapiens, UniProt P10635); experiment: Inhibition of CYP2D6 activity in human liver microsomes; type: in vitro ADME; parameters: co-incubated with pooled HLM (0.25 mg protein/mL); from tissue; host or cells: pooled human liver microsomes; settings: pooled human liver microsomes, pH 7.4, read-out: % of Control Enzyme Activity (n = 3) Average
human hepatocytes = settings: 72 h, 100 µM
Procedure: Plateable and inducible cryopreserved human hepatocytes were thawed and isolated in human hepatocyte thawing medium. […] After attachment (4 hours), the medium was changed to fresh hepatocyte culture medium for overnight cell recovery. […] A positive control (100 μM chlorpromazine) was treated in parallel. […] The absorbance of formazan, which is proportional to the number of viable cells, was measured spectrophotometrically using the CellTiter 96® AQueous One Solution Cell Proliferation Assay (MTS).

CYP2C8 = molecular target: T5, CYP2C8 (Homo sapiens, UniProt P10632); experiment: Inhibition of CYP2C8 activity in human liver microsomes; type: in vitro ADME; parameters: co-incubated with pooled HLM (0.25 mg protein/mL); from tissue; host or cells: pooled human liver microsomes
T5 sequence (P10632 1-490): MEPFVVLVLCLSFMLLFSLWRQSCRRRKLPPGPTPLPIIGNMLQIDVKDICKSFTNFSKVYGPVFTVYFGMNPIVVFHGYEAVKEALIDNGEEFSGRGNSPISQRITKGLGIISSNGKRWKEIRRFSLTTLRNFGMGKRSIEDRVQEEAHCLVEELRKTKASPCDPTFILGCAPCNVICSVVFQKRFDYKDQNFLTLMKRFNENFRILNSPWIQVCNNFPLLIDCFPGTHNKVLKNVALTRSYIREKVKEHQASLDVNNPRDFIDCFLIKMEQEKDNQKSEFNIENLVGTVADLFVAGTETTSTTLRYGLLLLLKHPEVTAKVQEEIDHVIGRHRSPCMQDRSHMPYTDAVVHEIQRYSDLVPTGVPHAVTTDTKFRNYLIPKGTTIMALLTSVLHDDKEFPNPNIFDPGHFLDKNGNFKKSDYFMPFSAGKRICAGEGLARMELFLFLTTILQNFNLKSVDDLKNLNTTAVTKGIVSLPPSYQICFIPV
Procedure: […]. […] Negative (vehicle) controls were conducted without TA.

MATE2K [10] = molecular target: T6, MATE2K (Homo sapiens, UniProt Q86VL8); experiment: in vitro; settings: probe metformin (50 μM)
MATE2K [11] = molecular target: T6, MATE2K; experiment: MATE2K inhibitor (IC50) assessment, metformin uptake in transfected HEK cells; settings: 50 μM Metformin + 1 μM Pyrimethamine

Chain of hrCYP2C9 (P11712 whole entry): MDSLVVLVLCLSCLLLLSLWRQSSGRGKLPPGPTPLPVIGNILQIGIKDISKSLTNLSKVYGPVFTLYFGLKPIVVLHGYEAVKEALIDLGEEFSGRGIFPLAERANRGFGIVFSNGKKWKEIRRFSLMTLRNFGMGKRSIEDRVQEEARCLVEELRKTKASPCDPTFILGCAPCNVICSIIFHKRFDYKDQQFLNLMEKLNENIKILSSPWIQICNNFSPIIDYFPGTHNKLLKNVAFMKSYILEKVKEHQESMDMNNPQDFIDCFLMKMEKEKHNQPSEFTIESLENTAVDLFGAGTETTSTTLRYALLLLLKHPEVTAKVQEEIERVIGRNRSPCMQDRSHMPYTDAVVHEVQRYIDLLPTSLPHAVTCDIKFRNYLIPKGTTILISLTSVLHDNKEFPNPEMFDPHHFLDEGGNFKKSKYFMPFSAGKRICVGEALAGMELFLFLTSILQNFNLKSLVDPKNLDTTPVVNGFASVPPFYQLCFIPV
T2 sequence (P11712 whole entry): as above
Chain of hrCYP3A4 (P08684 whole entry): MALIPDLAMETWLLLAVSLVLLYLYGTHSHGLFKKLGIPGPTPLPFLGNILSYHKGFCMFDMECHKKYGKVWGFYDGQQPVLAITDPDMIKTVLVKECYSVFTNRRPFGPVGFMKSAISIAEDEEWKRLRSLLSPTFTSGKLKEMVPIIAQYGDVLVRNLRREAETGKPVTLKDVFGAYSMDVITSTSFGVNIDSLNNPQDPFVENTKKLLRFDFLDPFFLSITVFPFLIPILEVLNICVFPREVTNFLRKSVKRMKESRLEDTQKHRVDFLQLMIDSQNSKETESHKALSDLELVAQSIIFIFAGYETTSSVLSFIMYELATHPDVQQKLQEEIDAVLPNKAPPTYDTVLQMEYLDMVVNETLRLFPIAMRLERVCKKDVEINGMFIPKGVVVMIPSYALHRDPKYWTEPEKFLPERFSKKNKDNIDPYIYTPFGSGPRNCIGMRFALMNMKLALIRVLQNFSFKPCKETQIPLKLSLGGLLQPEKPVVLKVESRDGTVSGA
T6 sequence (Q86VL8 1-566 isoform Q86VL8-3): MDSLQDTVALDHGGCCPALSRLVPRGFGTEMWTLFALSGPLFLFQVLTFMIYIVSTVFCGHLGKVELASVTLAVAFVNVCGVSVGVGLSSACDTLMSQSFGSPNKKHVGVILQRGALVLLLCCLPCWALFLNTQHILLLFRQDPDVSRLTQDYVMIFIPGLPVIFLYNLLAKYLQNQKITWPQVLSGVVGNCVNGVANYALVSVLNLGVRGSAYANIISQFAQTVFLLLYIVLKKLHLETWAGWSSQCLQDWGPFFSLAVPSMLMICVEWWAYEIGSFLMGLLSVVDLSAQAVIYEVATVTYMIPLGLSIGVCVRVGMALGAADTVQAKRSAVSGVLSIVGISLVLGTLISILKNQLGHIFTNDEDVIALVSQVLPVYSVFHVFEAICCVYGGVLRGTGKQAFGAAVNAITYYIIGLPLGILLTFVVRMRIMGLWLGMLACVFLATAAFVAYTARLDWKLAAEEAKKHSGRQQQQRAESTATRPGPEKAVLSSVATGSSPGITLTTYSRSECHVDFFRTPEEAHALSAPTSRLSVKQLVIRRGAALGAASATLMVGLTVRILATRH
Chain of CYP2D6 (P10635 whole entry): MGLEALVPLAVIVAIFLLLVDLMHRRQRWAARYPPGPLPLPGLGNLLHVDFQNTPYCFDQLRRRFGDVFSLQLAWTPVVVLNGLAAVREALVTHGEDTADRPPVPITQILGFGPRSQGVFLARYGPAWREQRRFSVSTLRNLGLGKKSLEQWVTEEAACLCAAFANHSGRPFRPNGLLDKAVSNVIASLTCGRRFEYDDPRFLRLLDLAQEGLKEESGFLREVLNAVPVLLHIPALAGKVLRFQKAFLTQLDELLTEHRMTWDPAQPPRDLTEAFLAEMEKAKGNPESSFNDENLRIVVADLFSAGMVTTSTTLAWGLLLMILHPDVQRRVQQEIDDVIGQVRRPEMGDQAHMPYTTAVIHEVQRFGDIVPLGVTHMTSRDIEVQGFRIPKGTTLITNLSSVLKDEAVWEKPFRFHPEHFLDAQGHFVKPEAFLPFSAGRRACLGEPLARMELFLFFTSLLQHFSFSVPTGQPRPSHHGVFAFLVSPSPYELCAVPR

C[C@]12CC[C@H]3[C@@H](CCC4=CC(=O)CC[C@@]43C)[C@@H]1CC[C@@H]2O [Testosterone, reference compound]
Formation Rate Ratio (hrCYP3A4): >>2
Formation Rate [1]: 0 pmol metabolite/min/mg Supersome protein
Measured Metabolite [1]: 0 µM

CN(C)CCCN1c2ccccc2CCc2ccccc21 [imipramine]
inhibition at 300 μM (OCT2 [2]): 97.9%
Percentage Inhibition of OCT2 (OCT2 [3]): 97.9%

Nc1ccc(S(=O)(=O)Nc2ccnn2-c2ccccc2)cc1 [Sulfaphenazole]
% of Control Enzyme Activity (n = 3) Average (CYP2C9 [4]; Sulfaphenazole 3.33 μM): 23.8%
% of Control Enzyme Activity (n = 3) Average (CYP2C9 [4]; Sulfaphenazole 10.0 μM): 14.9%

O=C(O)Cc1ccccc1Nc1c(Cl)cccc1Cl [Diclofenac]
Formation Rate Ratio (CYP2C9 [5]): 7.7
Formation Rate [1]: 0 pmol metabolite/min/mg Supersome protein
Measured Metabolite [1]: 0 µM
Formation Rate Ratio (hrCYP2C9): >>2
Formation Rate (hrCYP2C9; human, 20 min, 6 μM, pH 7.4): 845 pmol metabolite/min/mg Supersome protein
Measured Metabolite (hrCYP2C9; human, 20 min, 6 μM, pH 7.4): 1.56 µM

CCCN(CCC)S(=O)(=O)c1ccc(C(=O)O)cc1 [probenecid]
inhibition at 100 μM (OAT3 [6]): 99.1%
Percentage Inhibition of OAT3 (OAT3 [7]): 99.1%

S=P(N1CC1)(N1CC1)N1CC1 [Thio-TEPA]
activity at 30 min, 3.33 µM (CYP2B6 [8]; +NADPH 30 min, 3.33 μM): 35.5%
activity at 30 min, 10 µM (CYP2B6 [8]; +NADPH 30 min): 18.3%
activity at 30 min, 30 µM (CYP2B6 [8]; +NADPH 30 min): 11.6%
activity at 30 min, 10 µM (CYP2B6 [8]; −NADPH 30 min): 76.7%
activity at 30 min, 30 µM (CYP2B6 [8]; −NADPH 30 min): 54.8%
% of Control Enzyme Activity (n = 3) Average (CYP2B6 [9]; Thio-TEPA 3.33 μM): 66.9%
% of Control Enzyme Activity (n = 3) Average (CYP2B6 [9]; Thio-TEPA 10.0 μM): 44.1%
% of Control Enzyme Activity (n = 3) Average (CYP2B6 [9]; Thio-TEPA 30.0 μM): 26.7%

C=C[C@H]1C[N@@]2CC[C@H]1C[C@@H]2[C@@H](O)c1ccnc2ccc(OC)cc12 [Quinidine]
activity at 10 μM (CYP2D6): 5.61%

Cc1ncc2n1-c1ccc(Cl)cc1C(c1ccccc1F)=NC2 [Midazolam, reference compound]
Formation Rate Ratio (hrCYP3A4): >>2
Formation Rate [1]: 0 pmol metabolite/min/mg Supersome protein
Measured Metabolite [1]: 0 µM

CN(C)CCCN1c2ccccc2Sc2ccc(Cl)cc21 [Chlorpromazine, chlorpromazine]
% MTS Absorbance Relative to Vehicle Control (human hepatocytes): 24.3%
Formazan Absorbance (n = 3) Mean (human hepatocytes): 0.160

CC(C)(O)c1ccccc1CC[C@@H](SCC1(CC(=O)O)CC1)c1cccc(/C=C/c2ccc3ccc(Cl)cc3n2)c1 [Montelukast]
activity at 3.33 μM (CYP2C8; human, microsomes, pH 7.4): 14.6%
activity at 10 μM (CYP2C8; human, microsomes, pH 7.4): 5.31%
IC50 (CYP2C8; positive inhibitor, HLM): 517 nM

CCc1nc(N)nc(N)c1-c1ccc(Cl)cc1 [pyrimethamine]
inhibition at 1 μM (MATE2K [10]): 85.3%
Percentage Inhibition of MATE2K (MATE2K [11]): 85.3%
